Measured values as given in US9062289B2, “Differentiation of primate pluripotent stem cells to cardiomyocyte-lineage cells” (Asterias Biotherapeutics, Inc., priority 2005, dated 2015).

Tested on: primate pluripotent stem cell-derived cardiomyocytes
Assay: Contractile activity of primate pluripotent stem cell-derived cardiomyocytes
Format: cell-based
Conditions: spontaneous periodic contractions in culture
Method: Under appropriate circumstances, primate pluripotent stem cell-derived cardiomyocytes often show spontaneous periodic contractile activity. This means that when they are cultured in a suitable tissue culture environment with an appropriate Ca^++ concentration and electrolyte balance, the cells can be observed to contract across one axis of the cell, and then release from contraction, without having to add any additional components to the culture medium. The contractions are periodic, which means that they repeat on a regular or irregular basis, at a frequency between ˜6 and 200 contractions per minute, and often between ˜20 and ˜90 contractions per minute in normal buffer (FIG. 2). Individual cells may show spontaneous periodic contractile activity on their own, or they may show spontaneous periodic contractile activity in concert with neighboring cells in a tissue, cell aggregate, or cultured cell mass.
The contractile activity of the cells can be characterized according to the influence of culture conditions on the nature and frequency of contractions. Compounds that reduce available Ca^++ concentration or otherwise interfere with transmembrane transport of Ca^++ often affect contractile activity. […] Further characterization of functional properties of the cell can involve characterizing channels for Na^+, K^+, and Ca^++. Electrophysiology can be studied by patch clamp analysis for cardiomyocyte like action potentials. See Igelmund et al., Pflugers Arch. 437:669, 1999; Wobus et al., Ann. N.Y. Acad. Sci. 27:752, 1995; and Doevendans et al., J. Mol. Cell Cardiol. 32:839, 2000.

Structure (SMILES) | contractile activity | chronotropic effect
COc1ccc([C@@H]2Sc3ccccc3N(CCN(C)C)C(=O)[C@@H]2OC(C)=O)cc1 [diltiazem] | inhibits contractile activity in a dose-dependent manner | 
CC(C)NCC(O)c1ccc(O)c(O)c1 (stereo not drawn) [isoprenaline] |  | positive chronotropic effect
CNC[C@H](O)c1cccc(O)c1 [phenylephrine] |  | positive chronotropic effect
